Tests used:
Settings in all cases: pH 10
Carbonic anhydrase 1 [1] = target: T1, Carbonic anhydrase 1 (Homo sapiens, UniProt P00915); experiment: Esterase Activity Assay
Protocol: (§1) Carbonic anhydrase enzyme activity was assayed both with respect to its hydratase activity (i.e. hydration of CO2) and to its esterase activity (i.e. hydrolysis of an ester of p-nitrophenylacetate)

Carbonic anhydrase 2 [2] = target: T2, Carbonic anhydrase 2 (Homo sapiens, UniProt P00918); experiment: Esterase Activity Assay
Protocol: as §1

Carbonic anhydrase 1 [3] = target: T1, Carbonic anhydrase 1; experiment: Hydratase Activity Assay
Protocol: as §1

Carbonic anhydrase 2 [4] = target: T2, Carbonic anhydrase 2; experiment: Hydratase Activity Assay
Protocol: as §1

T1 sequence (P00915 whole entry): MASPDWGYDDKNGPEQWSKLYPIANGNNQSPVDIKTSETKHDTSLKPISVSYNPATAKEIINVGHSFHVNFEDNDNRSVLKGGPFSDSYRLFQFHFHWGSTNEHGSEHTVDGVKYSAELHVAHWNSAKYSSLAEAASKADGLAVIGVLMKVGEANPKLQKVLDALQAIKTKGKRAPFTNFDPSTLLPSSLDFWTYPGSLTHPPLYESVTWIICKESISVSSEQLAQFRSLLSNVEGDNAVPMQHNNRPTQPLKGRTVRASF

IC50 (Carbonic anhydrase 1 [1]) [µM]	IC50 (Carbonic anhydrase 2 [2]) [µM]	IC50 (Carbonic anhydrase 1 [3]) [µM]	IC50 (Carbonic anhydrase 2 [4]) [µM]	Compound
837	201	320	504	Cc1cccc(-c2cc3cc(O)c(O)cc3oc2=O)c1 [MPC]
160	246	124	61.7	O=c1oc2cc(O)c(O)cc2cc1-c1ccccc1 [DCP]
256	127	272	561	Cc1ccc(-c2cc3cc(O)c(O)cc3oc2=O)cc1 [PPC]
153	163	206	363	Cc1ccccc1-c1cc2cc(O)c(O)cc2oc1=O [OPC]
